Patent EP4782453A1 (Beyang Therapeutics Co., Ltd., priority 2023, dated 2025)
Read-outs that look alike come from different tables or passages of the source.

How the values were obtained:
[1] = test system: MV-4-11 (carrying MLL-AF4); assay: Inhibition of proliferation of human tumor cells (Alamar Blue, 7 days), MV-4-11; assay type: cell-based; details: Homo sapiens, MV4-11, 168 h, MV-4-11 cells (carrying MLL-AF4), method calls the value GI50
Description: Experimental Example 2: Evaluation of Inhibitory Activity of Compounds Against Proliferation of Human Tumor Cells
• Human acute lymphoblastic leukemia cells MV-4-11, purchased from American Type Culture Collection, Catalog Number: CRL-9591; • Human acute myeloid leukemia cells MOLM-13, purchased from COBIOER BIOSCIENCES CO., LTD, Catalog Number: CBP60678; • Human acute myeloid leukemia cells KG-1a, purchased from American Type Culture Collection, Catalog Number: CCL-246.1; • Inverted Microscope, purchased from Olympus Tokyo; • Countess™ Automated Cell Counter, purchased from Invitrogen, Model: C10281; and • Multilabel Reader, purchased from Bio-Tek, Model: Synergy HT.
MV-4-11 cells were cultured in an IMDM medium containing 10% fetal bovine serum, KG-a cells were cultured in an IMDM medium containing 20% fetal bovine serum, or MOLM-13 cells were cultured in an RPMI-1640 medium containing 20% fetal bovine serum, each supplemented with 100 U·mL^-1 penicillin and 100 µg·mL^-1 streptomycin. These cells were cultured at 37°C with 5% CO2. The suspensions of individual cell lines were prepared in their respective media and seeded into 96-well plates at a density of 4,000 cells/well for MV-4-11 and MOLM-13 cells, or 3,000 cells/well for KG-1a cells. On the day of the experiment, a compound stock solution was diluted in a 3-fold or 4-fold gradient using DMSO. Each gradient-diluted stock solution was then further diluted 250-fold with a complete medium to prepare a series of working solutions at different concentrations. Subsequently, 100 µL of working solution (containing a 2-fold concentration series of the test compound) was added to each well, with duplicate wells set up for each concentration.
Seven days after compound addition (on Day 7), an Alamar Blue assay reagent (MCE, HY-111391 / CS-0040317) was added to measure the fluorescence intensity in each well. Wells containing the cells in the growth medium supplemented with 0.1% DMSO (Day 7) served as high-read control wells. The readouts from the wells containing the cells in the growth medium supplemented with 0.1% DMSO on the day of compound addition (Day 0) served as low-reading control well. GraphPad Prism software was used to calculate the concentration required to inhibit 50% of cell proliferation (GI50), which serves as a cell proliferation inhibition activity index.

[2] = test system: MOLM-13 (carrying MLL-AF9); assay: Inhibition of proliferation of human tumor cells (Alamar Blue, 7 days), MOLM-13; assay type: cell-based; details: Homo sapiens, MOLM-13 cells (carrying MLL-AF9), method calls the value GI50
Summary of the method: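 Seven-day continuous compound exposure in duplicate wells, with 0.1% DMSO vehicle. Proliferation is quantified by Alamar Blue fluorescence and expressed as GI50, using Day 0 readings as the low reference.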

[3] = molecular target: T1, Menin-MLL (Homo sapiens, UniProt O00255); assay: Inhibitory activity against Menin-MLL binding (fluorescence polarization); details: 150 nM His-Menin, 15 nM FITC-MLL, 25°C for 60 min
T1 construct: His-Menin (M1-L615 end); purchased BIORTUS BP9210
T1 sequence (O00255 1-615 isoform O00255-1): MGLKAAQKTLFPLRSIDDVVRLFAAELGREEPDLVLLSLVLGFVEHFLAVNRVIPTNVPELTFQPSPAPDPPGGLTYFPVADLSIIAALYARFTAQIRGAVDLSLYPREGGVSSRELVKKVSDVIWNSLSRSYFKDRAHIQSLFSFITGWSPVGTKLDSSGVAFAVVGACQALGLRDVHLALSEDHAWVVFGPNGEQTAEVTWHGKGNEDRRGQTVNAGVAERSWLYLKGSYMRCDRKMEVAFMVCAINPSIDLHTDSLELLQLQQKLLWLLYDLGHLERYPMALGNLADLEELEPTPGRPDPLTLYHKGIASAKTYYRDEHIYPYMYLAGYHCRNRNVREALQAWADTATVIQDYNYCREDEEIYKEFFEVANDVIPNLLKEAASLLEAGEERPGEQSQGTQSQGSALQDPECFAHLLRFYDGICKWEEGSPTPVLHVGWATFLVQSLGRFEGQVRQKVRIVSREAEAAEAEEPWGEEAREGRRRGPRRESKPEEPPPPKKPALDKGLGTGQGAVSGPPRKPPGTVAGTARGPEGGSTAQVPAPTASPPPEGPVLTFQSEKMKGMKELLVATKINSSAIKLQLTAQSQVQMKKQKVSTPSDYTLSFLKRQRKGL
Summary of the method: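 His-Menin (M1-L615, 150 nM) preincubated with compound 15 min at 25 °C in HEPES pH 7.5, 50 mM NaCl, 1 mM DTT, 0.01% BSA, then 15 nM FITC-MLL4-43 peptide added for 60 min at 25 °C. Fluorescence polarization read; IC50 from 4-parameter logistic fit, duplicates.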

[4] = fluorescence polarization, read-out: Menin-MLL IC50
[5] = Menin-MLL IC50, fluorescence polarization

| Structure (SMILES) | IC50 [1] [µM] | IC50 ([2]; 168 h) [µM] | IC50 [3, 4] [µM] | IC50 ([2]; MOLM-13, 168 h) [µM] | IC50 [3, 5] [µM] |
| --- | --- | --- | --- | --- | --- |
| CNCCCC(C(C)C)N1CC(c2cc(-c3ccc(F)cc3C(=O)N(CC(F)F)C(C)C)c3c(F)nc(C)n3c2)C1 (stereo not drawn) [Example 141, N-(2,2-difluoroethyl)-5-fluoro-2-(1-fluoro-3-methyl-6-{1-[2-methyl-6-(methylamino)hexan-3-yl]azacyclobutan-3-yl}imidazo[1,5-a]pyridin-8-yl)-N-(isopropyl)benzamide] | 0.0011 | 0.0054 | 0.0055 | – | – |
| Cc1nc(F)c2c(-c3ccc(F)cc3C(=O)N3[C@H](C)COC[C@H]3C)cc(C3CN(CC4CCN(C(=O)CC#N)CC4)C3)cn12 [Example 226] | 0.0021 | 0.0053 | 0.0075 | – | – |
| Cc1nc(F)c2c(-c3ccc(F)cc3C(=O)N3CCOC[C@H]3C)cc(C3CN(CC4CCN(C(=O)C5CC5)CC4)C3)cn12 [Example 269] | 0.037 | 0.083 | 0.0335 | – | – |
| Cc1nc(F)c2c(-c3ccc(F)cc3C(=O)N3[C@H](C)COC[C@H]3C)cc(C3CN([C@@H](C)C4CCOCC4)C3)cn12 [Example 209-2, (3R,5R)-4-[5-fluoro-2-(1-fluoro-3-methyl-6-{1-[(1S)-1-(oxacyclohexan-4-yl)ethyl]azacyclobutan-3-yl}imidazo[1,5-a]pyridin-8-yl)benzoyl]-3,5-dimethylmorpholine] | 0.002 | 0.005 | 0.0045 | – | – |
| CCS(=O)(=O)N[C@H]1CC[C@H](CN2CC(c3cc(-c4ccc(F)cc4C(=O)N(CC(F)F)C(C)C)c4c(F)nc(C)n4c3)C2)CC1 [Example 132, N-(2,2-difluoroethyl)-5-fluoro-2-[1-fluoro-3-methyl-6-(1-{[(1r,4r)-4-ethanesulfonamidocyclohexyl]methyl}-azacyclobutan-3-yl)imidazo[1,5-a]pyridin-8-yl]-N-(isopropyl)benzamide] | 0.017 | – | – | 0.016 | 0.006 |
| COCCN(C)C1CC(C(C(C)C)N2CC(c3cc(-c4ccc(F)cc4C(=O)N4CCOC[C@H]4C)c4cnn(C)c4c3)C2)C1 (stereo partly drawn) [Example 195, 3-{1-[3-(4-{4-fluoro-2-[(3R)-3-methylmorpholin-4-carbonyl]phenyl}-1-methyl-1H-indazol-6-yl)azacyclobutan-1-yl]-2-methylpropyl}-N-(2-methoxyethyl)-N-methylcyclobutan-1-amine] | 0.013 | 0.035 | 0.041 | – | – |
| CCC(=O)N1CCC(CN2CC(c3cc(-c4ccc(F)cc4C(=O)N4[C@H](C)COC[C@H]4C)c4c(F)nc(C)n4c3)C2)CC1 [Example 231] | 0.0061 | 0.016 | 0.0225 | – | – |
| CO[C@H]1CCN([C@H]2C[C@H](C(C(C)C)N3CC(c4cc(-c5ccc(F)cc5C(=O)N5CCOC[C@H]5C)c5cnn(C)c5c4)C3)C2)C1 (stereo partly drawn) [Example 196-1, 4-{4-fluoro-2-[(3R)-3-methylmorpholin-4-carbonyl]phenyl}-1-methyl-6-(1-{2-methyl-1-[(1r,3r)-3-[(3S)-3-methoxypyrrolidin-1-yl]cyclobutyl]propyl}azacyclobutan-3-yl)-1H-indazole] | 0.036 | – | – | 0.12 | 0.05 |
| Cc1nc(F)c2c(-c3ccc(F)cc3C(=O)N3[C@H](C)COC[C@H]3C)cc(C3CN(CC4CCN(C(=O)C5COC5)CC4)C3)cn12 [Example 216] | 0.022 | 0.032 | 0.023 | – | – |
| Cc1nc(F)c2c(-c3ccc(F)cc3C(=O)N3CCOC[C@H]3C)cc(C3CN(CC4CCN(C(=O)C5(O)CC5)CC4)C3)cn12 [Example 248] | 0.034 | 0.063 | 0.0305 | – | – |
| Cc1nc(F)c2c(-c3ccc(F)cc3C(=O)N3CCOC[C@H]3C)cc(C3CN(CC4CCN(C(=O)CC#N)CC4)C3)cn12 [Example 249] | 0.05 | 0.044 | 0.024 | – | – |
| CCS(=O)(=O)N[C@H]1CC[C@H](CN2CCC(c3cc(-c4ccc(F)cc4C(=O)N(CC(F)F)C(C)C)c4cnccn34)CC2)CC1 [Example 139, N-(2,2-difluoroethyl)-5-fluoro-N-(isopropyl)-2-[6-(1-{[(1r,4r)-4-ethanesulfonamidocyclohexyl]methyl}piperidin-4-yl)pyrrolo[1,2-a]pyrazin-8-yl]benzamide] | 0.044 | – | – | 0.096 | 0.042 |
| CNC(=O)N1CCC(CN2CC(c3cc(-c4ccc(F)cc4C(=O)N4[C@H](C)COC[C@H]4C)c4c(F)nc(C)n4c3)C2)CC1 [Example 222] | 0.0044 | 0.009 | 0.007 | – | – |
| CCC(=O)N1CCC([C@H](C)N2CC(c3cc(-c4ccc(F)cc4C(=O)N4CCOC[C@H]4C)c4c(F)nc(C)n4c3)C2)CC1 [Example 295] | 0.019 | 0.047 | 0.005 | – | – |
| Cc1nc(F)c2c(-c3ccc(F)cc3C(=O)N3CCOC[C@H]3C)cc(C3CN(C(CC[C@H]4CNCCO4)C(C)C)C3)cn12 (stereo partly drawn) [Example 244, (3R)-4-{5-fluoro-2-[1-fluoro-3-methyl-6-(1-{4-methyl-1-[(2S)-morpholin-2-yl]pentan-3-yl}azacyclobutan-3-yl)imidazo[1,5-a]pyridin-8yl]benzoyl}-3-methylmorpholine] | 0.013 | 0.064 | 0.017 | – | – |
| CCN(C(=O)c1cc(F)ccc1-c1cc(CC2CN([C@H](CCCN(C)CCOC)C(C)C)C2)n2c(C)cncc12)C(C)C [Example 296-1, N-ethyl-5-fluoro-2-[6-({1-[(3R)-6-[(2-methoxyethyl)(methyl)amino]-2-methylhexan-3-yl]azacyclobutan-3-yl}methyl)-4-methylpyrrolo[1,2-a]pyrazin-8-yl]-N-(isopropyl)benzamide] | 0.00075 | 0.003 | 0.001 | – | – |
| Cc1nc(F)c2c(-c3ccc(F)cc3C(=O)N3[C@H](C)COC[C@H]3C)cc(C3CN(CC4CCN(C(=O)C5CCOCC5)CC4)C3)cn12 [Example 221] | 0.012 | 0.027 | 0.027 | – | – |
| Cc1nc(F)c2c(-c3ccc(F)cc3C(=O)N(CC(F)F)C(C)C)cc(C3CN(C(=O)[C@@H]4CCCCN4)C3)cn12 [Example 131, N-(2,2-difluoroethyl)-5-fluoro-2-(1-fluoro-3-methyl-6-{1-[(2S)-piperidin-2-carbonyl]azacyclobutan-3-yl}imidazo[1,5-a]pyridin-8-yl)-N-(isopropyl)benzamide] | 0.05 | 0.04 | 0.0155 | – | – |
| CCN(C(=O)c1cc(F)ccc1-c1cc(C2CN([C@H](CCCN3CCN(C)CC3)C(C)C)C2)cc2c1cnn2C)C(C)C [Example 420] | 0.018 | 0.043 | 0.0038 | – | – |
